One test addresses T1, P2X7 receptor (Homo sapiens, UniProt Q99572).
T1 construct: host or cells: SH-SY5Y
T1 sequence (Q99572 1-595): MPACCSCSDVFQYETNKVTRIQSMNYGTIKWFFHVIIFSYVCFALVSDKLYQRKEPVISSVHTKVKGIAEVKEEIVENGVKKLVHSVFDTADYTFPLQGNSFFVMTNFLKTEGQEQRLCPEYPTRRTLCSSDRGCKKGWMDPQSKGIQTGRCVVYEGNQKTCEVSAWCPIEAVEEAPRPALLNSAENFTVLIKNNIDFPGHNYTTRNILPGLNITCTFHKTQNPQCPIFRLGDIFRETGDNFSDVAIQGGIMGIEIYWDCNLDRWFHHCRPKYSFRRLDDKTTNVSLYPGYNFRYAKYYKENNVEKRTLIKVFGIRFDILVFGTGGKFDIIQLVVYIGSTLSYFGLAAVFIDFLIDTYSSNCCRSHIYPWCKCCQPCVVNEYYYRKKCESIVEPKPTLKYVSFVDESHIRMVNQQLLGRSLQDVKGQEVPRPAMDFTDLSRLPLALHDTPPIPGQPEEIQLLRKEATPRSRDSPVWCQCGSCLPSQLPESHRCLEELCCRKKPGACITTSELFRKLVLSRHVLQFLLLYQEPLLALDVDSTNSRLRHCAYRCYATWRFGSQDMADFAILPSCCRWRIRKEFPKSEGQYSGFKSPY
Put plainly: P2X7 calcium mobilization assay, high throughput, antagonist activity (Example 4A). In kind it is cell-based.
Settings: not given
The method, then:
One day prior to the experiment, cells are plated at a density of 100,000 cells/well in a 96 well black/clear TC plate (Corning® Costar®, Sigma-Aldrich Co., St. Louis, Mo.). […] After one hour dye incubation, wells are rinsed once with 50 μL assay solution, and are then incubated for an hour at room temperature with 100 μL assay solution containing the test compound. […] After the one hour incubation, plates are transferred to a FLIPR^TETRA instrument (Molecular Devices, Sunnyvale, Calif.) for calcium mobilization analysis.
First, the average maximum relative fluorescent unit (RFU) response from the negative control wells (no agonist) is subtracted from the maximum response detected for each of the other experimental wells. Second, average maximum RFU response is calculated for the positive control wells (agonist wells).
A general note: Calcium flux is commonly read through the fluorescence of an indicator in the cells.
For the molecule `CCOC(=O)c1cn2c(C(=O)NCC34CC5CC(CC(C5)C3)C4)cccc2n1` [Compound 2, ethyl 5-[(adamantan-1-ylmethyl)carbamoyl]imi-dazo[1,2-a]pyridine-2-carboxylate], the IC50 was less than 2000 nM.

As to `O=C(NCC12CC3CC(CC(C3)C1)C2)c1cccc2nc(CO)cn12` [Compound 3, N-(adamantan-1-ylmethyl)-2-(hydroxymethyl)imi-dazo[1,2-a]pyridine-5-carboxamide], the IC50 is less than 2000 nM.

The same test, now with this note: 50% decrease in the fluorescence response of cells exposed to 80 μM 2′(3′)-O-(4-benzoyl-benzoyl)adenosine 5′-triphosphate; Example 4A; read-out: IC50.
Turning to `CC1(C)C2CC[C@H](CNC(=O)c3cccc4nc(C(=O)N5CCC[C@@H](N)C5)cn34)C1C2` (relative stereo) [Compound 548, rel-2-{[(3R)-3-aminopiperidin-1-yl]carbonyl}-N-{[(2S)-6,6-dimethylbicyclo[3.1.1]hept-2-yl]methyl}imidazo[1,2-a]pyridine-5-carboxamide], the IC50 is less than 2000 nM.

With `CC1(C)C2CC[C@H](CNC(=O)c3cccc4nc(CC(=O)N5CC[C@@H](N)C5)cn34)C1C2` (relative stereo) [Compound 549, rel-2-{2-[(3R)-3-aminopyrrolidin-1-yl]-2-oxoethyl}-N-{[(2S)-6,6-dimethylbicyclo[3.1.1]hept-2-yl]methyl}imidazo[1,2-a]pyridine-5-carboxamide], the IC50 is less than 2000 nM.

Turning to `CC1(C)C2CC[C@H](CNC(=O)c3cccc4nc(CC(=O)N5CCC[C@@H](N)C5)cn34)C1C2` (relative stereo) [Compound 550, rel-2-{2-[(3R)-3-aminopiperidin-1-yl]-2-oxoethyl}-N-{[(2S)-6,6-dimethylbicyclo[3.1.1]hept-2-yl]methyl}imidazo[1,2-a]pyridine-5-carboxamide], the IC50 is less than 2000 nM.

Turning to `CC1(C)[C@@H]2CC[C@@H](CNC(=O)c3cccc4nc(CC(=O)N5C[C@H]6CC5CN6)cn34)[C@H]1C2` (stereo in doubt) [Compound 558, 2-{2-[(1R,4R)-2,5-diazabicyclo[2.2.1]hept-2-yl]-2-oxoethyl}-N-{[(1R,2R,5R)-6,6-dimethylbicyclo [3.1.1]hept-2-yl]methyl}imidazo[1,2-a]pyridine-5-carboxamide], the IC50 was less than 2000 nM.

Still in this test, the particulars now being: 50% decrease in the fluorescence response of cells exposed to 80 μM of 2′(3′)-O-(4-benzoyl-benzoyl)adenosine 5′-triphosphate; Example 4A; read-out: IC50.
Consider `CC1(C)C2CC[C@H](CNC(=O)c3cccc4nc(CC(=O)O)cn34)C1C2` (stereo in doubt) [Compound 682, (5-{[(6,6-dimethylbicyclo[3.1.1]hept-2-yl)methyl]carbamoyl}imidazo[1,2-a]pyridin-2-yl)acetic acid], for which the IC50 is less than 2000 nM.

`CC(C)CC(CNC(=O)c1cccc2nc(CN3CC[C@@H](NC(=O)OC(C)(C)C)C3)cn12)C1CCCCC1` (stereo in doubt) [Compound 738, tert-butyl [1-({5-[(2-cyclohexyl-4-methylpentyl)carbamoyl]imidazo [1,2-a]pyridin-2-yl}methyl)pyrrolidin-3-yl]carbamate]: the IC50 was less than 2000 nM.

As for `CC(C)N[C@@H]1CCN(C(=O)c2cn3c(NC(=O)CC45CC6CC(CC(C6)C4)C5)cccc3n2)C1` (stereo in doubt) [Compound 743, 2-adamantan-1-yl-N-(2-{[3-(isopropylamino)pyrrolidin-1-yl]carbonyl}imidazo[1,2-a]pyridin-5-yl)acetamide], the IC50 was less than 2000 nM.

Turning to `CC(C(=O)N1CC[C@@H](NC(=O)OC(C)(C)C)C1)c1cn2c(C(=O)NCC34CC5CC(CC(C5)C3)C4)cccc2n1` (stereo in doubt) [Compound 749, tert-butyl [1-(2-{5-[(adamantan-1-ylmethyl)carbamoyl]imidazo[1,2-a]pyridin-2-yl}propanoyl)pyrrolidin-3-yl]carbamate], the IC50 is less than 2000 nM.

As to `CC(C(=O)N1CCC[C@@H](NC(=O)OC(C)(C)C)C1)c1cn2c(C(=O)NCC34CC5CC(CC(C5)C3)C4)cccc2n1` (stereo in doubt) [Compound 750, tert-butyl [1-(2-{5-[(adamantan-1-ylmethyl)carbamoyl]imidazo[1,2-a]pyridin-2-yl}propanoyl)piperidin-3-yl]carbamate], the half-inhibitory concentration (IC50) is less than 2000 nM.

On to `CC(C)CC(CNC(=O)c1cccc2nc(CN3CC[C@@H](N)C3)cn12)c1ccc(C(F)(F)F)cc1` (stereo in doubt) [Compound 763, 2-[(3-aminopyrrolidin-1-yl)methyl]-N-{4-methyl-2-[4-(trifluoromethyl)phenyl]pentyl}imidazo [1,2-a] pyridine-5-carboxamide], for which the IC50 is less than 2000 nM.

In the case of `CC(C)(C)OC(=O)N[C@@H]1CCN(Cc2cn3c(C(=O)NCC(CC4CC4)c4ccccc4)cccc3n2)C1` (stereo in doubt) [Compound 776, tert-butyl [1-({5-[(3-cyclopropyl-2-phenylpropyl)carbamoyl]imidazo[1,2-a]pyridin-2-yl}methyl)pyrrolidin-3-yl]carbamate], the IC50 was less than 2000 nM.

As to `CC(C)(C)OC(=O)N[C@@H]1CCN(Cc2cn3c(C(=O)NCC(CC4CCC4)c4ccccc4)cccc3n2)C1` (stereo in doubt) [Compound 777, tert-butyl [1-({5-[(3-cyclobutyl-2-phenylpropyl)carbamoyl]imidazo[1,2-a]pyridin-2-yl}methyl)pyrrolidin-3-yl]carbamate], the IC50 is less than 2000 nM.

For the molecule `CC(C)(C)OC(=O)N[C@@H]1CCN(Cc2cn3c(C(=O)NCC(CC4CCCC4)c4ccccc4)cccc3n2)C1` (stereo in doubt) [Compound 784, tert-butyl [1-({5-[(3-cyclopentyl-2-phenylpropyl)carbamoyl]imidazo[1,2-a]pyridin-2-yl}methyl)pyrrolidin-3-yl]carbamate], the IC50 is less than 2000 nM.

Staying with this test, now noted: 50% decrease in the fluorescence response of cells exposed to 80 μM of 2′(3′)-O-(4-benzoyl-benzoyl)adenosine 5′-triphosphate; determined as in Example 4A; read-out: IC50.
`O=C(NCC12CC3CC(CC(C3)C1)C2)c1cccc2nc([C@H]3CCCC[C@H]3C(=O)O)cn12` (relative stereo) [Compound 995, rel-(1R,2S)-2-{5-[(adamantan-1-ylmethyl)carbamoyl]imidazo[1,2-a]pyridin-2-yl} cyclohexane-carboxylic acid]: the IC50 was less than 2000 nM.

For `CCOC(=O)[C@@H]1CCCC[C@@H]1c1cn2c(C(=O)NCC34CC5CC(CC(C5)C3)C4)cccc2n1` (relative stereo) [Compound 996, ethyl rel-(1R,2S)-2-{5-[(adamantan-1-ylmethyl)carbamoyl]imidazo[1,2-a]pyridin-2-yl} cyclohexane-carboxylate], the IC50 was less than 2000 nM.

The same test, now with this note: SH-SY5Y cells; 50% decrease in fluorescence response to 80 μM BzATP; read-out: IC50.
As to `CC(C)C(=O)N[C@@H]1CCN(Cc2cn3c(C(=O)NCC45CC6CC(CC(C6)C4)C5)cccc3n2)C1` (stereo in doubt) [Compound 71, N-(adamantan-1-ylmethyl)-2-{[3-(isobutyryl-amino)pyrrolidin-1-yl]methyl}imidazo[1,2-a]pyridine-5-carboxamide], the IC50 was less than 2000 nM.

As to `N[C@H]1CCN(C(=O)Cc2cn3c(C(=O)NCC45CC6CC(CC(C6)C4)C5)cccc3n2)C1` (stereo in doubt) [Compound 144, N-(adamantan-1-ylmethyl)-2-[2-(3-aminopyrrolidin-1-yl)-2-oxoethyl]imidazo[1,2-a]pyridine-5-carboxamide], the IC50 is less than 2000 nM.

With `O=C(NCC12CC3CC(CC(C3)C1)C2)c1cccc2nccn12` [Compound 1, N-(adamantan-1-ylmethyl)imidazo[1,2-a]pyridine-5-carboxamide], the 50% inhibitory concentration (IC50) was less than 2000 nM.

The same test, now with this note: fluorescence response of cells exposed to 80 μM 2′(3′)-O-(4-benzoyl-benzoyl)adenosine 5′-triphosphate; Example 4A; read-out: IC50.
With `C[C@@H]1COC[C@H](C)N1Cc1cn2c(C(=O)NCC34CC5CC(CC(C5)C3)C4)cccc2n1` (relative stereo) [Compound 343, rel-N-(adamantan-l-ylmethy)-2-{[(3R, 5S)-3,5-dimethylmorpholin-4-yl]methyl}imidazo[1,2-a]pyridine-5-carboxamide], the IC50 is less than 2000 nM.

Regarding `CC1(C)[C@H]2CC[C@@H](CNC(=O)c3cccc4nc(C(=O)N5C[C@H]6CC5CN6)cn34)[C@@H]1C2` (stereo in doubt) [Compound 302, 2-[(1R,4R)-2,5-diazabicyclo[2.2.1]hept-2-ylcarbonyl]-N-{[(1S,2R,5S)-6,6-dimethylbicyclo[3.1.1]hept-2-yl]methyl}imidazo[1,2-a]pyridine-5-carboxamide], the IC50 is less than 2000 nM.

In the case of `CC1(C)[C@H]2CC[C@@H](CNC(=O)c3cccc4nc(C(=O)N5C[C@@H]6CC5CN6)cn34)[C@@H]1C2` (stereo in doubt) [Compound 303, 2-[(1S,4S)-2,5-diazabicyclo[2.2.1]hept-2-ylcarbonyl]-N-{[(1S,2R,5S)-6,6-dimethylbicyclo[3.1.1]hept-2-yl]methyl}imidazo[1,2-a]pyridine-5-carboxamide], the IC50 is less than 2000 nM.

As usually defined, the IC50 is the midpoint of a concentration-inhibition curve.

The record behind these values is patent US8431593B2, “Heteroaryl amide derivatives” (H. Lundbeck A/S, priority 2006, dated 2013).
